Data: article PMC3130777, “Phase I Hydroxylated Metabolites of the K2 Synthetic Cannabinoid JWH-018 Retain In Vitro and In Vivo Cannabinoid 1 Receptor Affinity and Activity” (PLoS ONE, 2011)
Several values for one entry are separate records, joined by “and”; a condition that tells them apart may be missing. Equal entries are not always repeated. Where two headings read alike, the source gives them in different places.

Assays:
NIH Swiss mice [1] = assay: Core body temperature measured by radiotelemetry in mice; format: in vivo, mouse; conditions: for Core body temperature area under the curve relative to vehicle controls: 0–10 hr, n = 5; for Depression in core body temperature compared with 30 mg/kg Δ^9-THC: 10 h time course
NIH Swiss mice [2] = assay: Locomotor activity measured by radiotelemetry in mice; format: in vivo, mouse; conditions: for Locomotor activity (area under the curve) relative to vehicle controls: 10 h time course, n = 5
CB1R [3] = molecular target: T1, CB1R (Mus musculus, UniProt P47746); assay: biochemical; format: binding; conditions: for Fold higher CB1R affinity than Δ^9-THC: relative to Δ^9-THC Ki; for Displacement of [^3H]CP-55,940 from CB1Rs: mouse brain homogenates, data not shown
T1 construct: CB1Rs are endogenously expressed in abundant quantities in the CNS; from tissue; host or cells: whole brain of B6SJL mice, crude membrane homogenates
T1 sequence (P47746 whole entry): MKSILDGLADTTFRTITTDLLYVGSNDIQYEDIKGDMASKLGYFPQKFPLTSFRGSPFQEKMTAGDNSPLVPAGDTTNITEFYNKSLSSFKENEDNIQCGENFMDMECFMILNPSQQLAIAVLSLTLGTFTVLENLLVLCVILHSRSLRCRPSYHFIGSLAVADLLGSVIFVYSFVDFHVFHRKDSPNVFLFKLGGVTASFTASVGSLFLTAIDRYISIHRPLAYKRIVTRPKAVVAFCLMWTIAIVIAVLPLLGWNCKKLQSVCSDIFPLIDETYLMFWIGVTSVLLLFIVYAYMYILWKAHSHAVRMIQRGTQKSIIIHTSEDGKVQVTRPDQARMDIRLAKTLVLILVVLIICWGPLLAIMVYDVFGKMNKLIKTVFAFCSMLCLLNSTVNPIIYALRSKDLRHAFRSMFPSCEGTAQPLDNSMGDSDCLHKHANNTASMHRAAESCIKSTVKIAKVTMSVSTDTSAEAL

CB1R [4] = molecular target: T1, CB1R; format: biochemical; conditions: for Agonist type at mCB1Rs (partial or full) / Level of G-protein stimulation relative to Δ^9-THC: 10 µM; for Agonist type at mCB1Rs (partial or full): compared with full agonist CP-55,940; for G-protein stimulation ([^35S]GTPγS bound): receptor saturating concentration (10 µM), Fig. 3A
CB1R [5] = molecular target: CB1R; set-up: method as in PMID 10940540, PMID 21079038; conditions: read-out: Ki values previously reported; cited from earlier work
[6] = AM-251 10 mg/kg pretreatment, 30 mg/kg Δ^9-THC, 3 mg/kg JWH-018, 10 mg/kg M1 i.p.
[7] = concentration-effect curve, Fig. 3B, n = 3–4
[8] = Affinity (Ki) for CB1Rs, competition against 0.2 nM [^3H]CP-55,940, mouse whole brain membrane homogenates, mean ± SEM, n = 3–4

Structure (SMILES) | Agonist type at mCB1Rs (partial or full) (CB1R [4]) | G-protein stimulation ([^35S]GTPγS bound) (CB1R [4]) | Ki (CB1R [3]; [8]) | Level of G-protein stimulation relative to Δ^9-THC (CB1R [4]) | Displacement of [^3H]CP-55,940 from CB1Rs (CB1R [3]) | further results
Cc1c(C(=O)NN2CCCCC2)nn(-c2ccc(Cl)cc2Cl)c1-c1ccc(I)cc1 [AM-251, reference compound] |  |  |  |  |  | Core body temperature after antagonist pretreatment of cannabinoid-treated mice (NIH Swiss mice [1]; [6]): restored core body temperature to control levels; Effect of Δ^9-THC, JWH-018 and M1 on locomotor activity after antagonist pretreatment (NIH Swiss mice [2]; [6]): significantly attenuated
CCCCCCC(C)(C)c1ccc([C@@H]2C[C@H](O)CC[C@H]2CCCO)c(O)c1 [CP-55,940, reference compound] | full | 0.39 ± 0.02 pmol/mg |  |  |  | Ki (CB1R [3]; competition against 0.2 nM [^3H]CP-55,940, mouse whole brain membrane homogenates, mean ± SEM, n = 3–4, read-out: Affinity (Ki) for CB1Rs): 0.26 ± 0.12 nM; Maximal efficacy (Emax) of G-protein activation (CB1R [4]; [7]): 0.28 ± 0.02 pmol/mg; EC50 (CB1R [4]; concentration-effect curve, Fig. 3B, n = 3–4, read-out: EC50 of G-protein activation): 3.36 ± 2.35 nM
CCCCCn1cc(C(=O)c2cccc3ccccc23)c2ccccc21 [JWH-018, (1-pentyl-1H-indol-3-yl)-1-naphthalenyl-methanone] | full | 0.29 ± 0.02 pmol/mg | 1.2 nM and 1.22 nM | greater |  | Core body temperature area under the curve relative to vehicle controls (NIH Swiss mice [1]; 3 mg/kg i.p.): significantly lower than vehicle controls; Depression in core body temperature compared with 30 mg/kg Δ^9-THC (NIH Swiss mice [1]; 3 mg/kg i.p.): greater depressions; Ki (CB1R [5]): 9 nM; Fold higher CB1R affinity than Δ^9-THC (CB1R [3]): ~10 fold; Locomotor activity (area under the curve) relative to vehicle controls (NIH Swiss mice [2]; 3 mg/kg i.p.): significantly decrease; Maximal efficacy (Emax) of G-protein activation (CB1R [4]; [7]): 0.29 ± 0.02 pmol/mg
CCCCCn1cc(C(=O)c2cccc3ccccc23)c2c(O)cccc21 [M1, (4-hydroxy-1-pentyl-1H-indol-3-yl)(naphthalen-1-yl)methanone] | partial |  | 2.6 nM and 2.65 nM | greater | completely displaced | Core body temperature area under the curve relative to vehicle controls (NIH Swiss mice [1]; 10 mg/kg i.p.): significantly lower than vehicle controls; Depression in core body temperature compared with 30 mg/kg Δ^9-THC (NIH Swiss mice [1]; 10 mg/kg i.p.): greater depressions; Fold higher CB1R affinity than Δ^9-THC (CB1R [3]): ~10 fold; Locomotor activity (area under the curve) relative to vehicle controls (NIH Swiss mice [2]; 10 mg/kg i.p.): significantly decrease
CCCCCn1cc(C(=O)c2cccc3ccccc23)c2cc(O)ccc21 [M2, (5-hydroxy-1-pentyl-1H-indol-3-yl)(naphthalen-1-yl)methanone] | full | 0.32 ± 0.03 pmol/mg | 4.22 ± 1.16 nM | greater | completely displaced | 
CCCCCn1cc(C(=O)c2cccc3ccccc23)c2ccc(O)cc21 [M3, (6-hydroxy-1-pentyl-1H-indol-3-yl)(naphthalen-1-yl)methanone] | full |  | 17.2 ± 3.58 nM | greater | completely displaced | 
CCCCCn1cc(C(=O)c2cccc3ccccc23)c2cccc(O)c21 [M4] | partial |  | 20.8 ± 4.85 nM | equivalent | completely displaced | 
O=C(c1cccc2ccccc12)c1cn(CCCCCO)c2ccccc12 [M5, (1-(5-hydroxypentyl)-1H-indol-3-yl)(naphthalen-1-yl)methanone] | full |  | 25.2 ± 4.99 nM | greater | completely displaced | 
O=C(O)CCCCn1cc(C(=O)c2cccc3ccccc23)c2ccccc21 [M6, 5-(3-(1-naphthoyl)-1H-indol-1-yl)pentanoic acid] |  |  | > 10000 nM |  |  | Affinity (Ki) for CB1Rs (CB1R [3]; competition against 0.2 nM [^3H]CP-55,940, mouse whole brain membrane homogenates, mean ± SEM, n = 3–4): fails to bind
